This is an account of results in US10604514B2, “6-(5-membered heteroaryl)isoquinolin-3-yl carboxamides and preparation and use thereof” (Samumed, LLC, priority 2017, dated 2020).

Where two headings read alike, the source gives them in different places.

The test system of experiment [1] is Tau phosphorylation at Ser396 (pSer396), SH-SY5Y cells. The experiment can be described thus: Tau phosphorylation at Ser396 (pSer396) in SH-SY5Y cells, ELISA/western blot.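 Further: cell lysates probed for reduced Tau pSer396 via ELISA (colorimetric) or western blot (chemiluminescence), both with one shared pSer396 antibody, EC50 for lowering phosphorylation.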 The format is cell-based, human. To be noted: Homo sapiens. A general note: In an ELISA, binding on a coated surface is turned into a signal by an enzyme label.
The next experiment has as its target DYRK1A kinase (Homo sapiens (Human), UniProt Q13627). The experiment can be described thus: DYRK1A kinase assay (Ser/Thr 18 peptide Z-lyte, FRET).
The test system of experiment [2] is Wnt activity (Sp5-Luc reporter in SW480 colon carcinoma cells). The experiment can be described thus: Wnt activity screening assay (Sp5-Luc reporter gene assay). Conditions: Homo sapiens; for inhibition at 10 µM: SW480, read-out: percent inhibition at 10 μM; for EC50: Sp5-Luc reporter, SW480 cells, 36 to 48 hours. It is filed as cell-based, human. The method, boiled down: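 Compounds at 10 points (1:3 steps, top 10 μM, 0.1% DMSO final) were incubated 36 to 48 h at 37° C with stable Sp5-Luc SW480 reporter cells in 1% FBS medium. Luciferase luminescence was then read and expressed relative to DMSO-only cells. Four-parameter variable-slope fitting yielded EC50 values.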
For orientation: A reporter such as luciferase makes a cellular process visible.

Another experiment has as its system IL-6. The experiment can be described thus: IL-6 inhibition in LPS-stimulated human peripheral blood mononuclear cells (HTRF). It is filed as cell-based. To be noted: Homo sapiens, PBMC; for inhibition at 10 µM: read-out: percent value in parentheses below EC50 >10; for EC50: IL-6, LPS-stimulated huPBMCs, HTRF. A digest of the protocol:
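EC50 from a 4-parameter fit of DMSO-normalized HTRF (665/620 nm) IL-6 signal, duplicates. Compound was added to fresh human PBMCs in 1% FBS RPMI for 2 h (top 10 μM, 3-fold, 0.25% DMSO) before 22 h stimulation with LPS at 50 ng/mL, 37 °C.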
For orientation: TR-FRET usually uses a lanthanide donor and a delayed reading to cut background.

Experiment [3] deals with SW480 colon carcinoma cells. The experiment can be described thus: Cell viability assay (CellTiter-Glo) in SW480 cells.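 Further: SW480 cells stably carrying an Sp5-luciferase TCF/LEF reporter, luminescent ATP signal as viability measure, DMSO-treated cells as control.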 The format is cell-based, human.
In experiment [4] the test system is LL29 cells (primary human fibroblasts derived from IPF patients), α-smooth muscle actin. Description: Inhibition of fibrotic process: αSMA in TGF-β1-treated primary human fibroblasts from IPF patients (LL29 cells). To be noted: Homo sapiens, Fibroblast; for EC50: 96 h, % αSMA-positive LL29 cells, TGF-β1 20 ng/mL, 4 days; for inhibition at 10 µM: read-out: percent inhibition at 10 μM. The format is cell-based. The method, boiled down:
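Read-out is the percentage of αSMA-positive cells by high-content imaging, excluding SYTOX green-positive dead/apoptotic cells, normalized to TGF-β1-only wells on the same plate. LL29 cells were exposed for 4 days at 37 °C to 20 ng/mL TGF-β1 plus 11-point, 2-fold compound dilutions in 0.1% DMSO.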

A further experiment concerns the target GSK3β kinase (Homo sapiens (Human), UniProt P49841). Description: GSK3β kinase assay (Ser/Thr 09 peptide Z-lyte, FRET).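 Further: Coumarin/fluorescein emission ratio converted to percent phosphorylation against unphosphorylated (0%) and phosphorylated (100%) controls, 1 h compound incubation at room temperature, 11-point threefold dilutions from 10 µM, run in duplicate.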 It is filed as biochemical. To be noted: method text calls the value IC50.
The mark [5] stands for this setting: SH-SY5Y cells, overnight (16-18 h), read-out: pSer396 Tau EC50.
[6] abbreviates: Homo sapiens, 96 h; cell viability, SW480 cells, four days, CellTiter-Glo.
Where [7] appears, read: Homo sapiens, SW480; read-out: percent inhibition at 10 μM.
Setting [8] is: DYRK1A kinase, method text calls the value IC50.

Chain of GSK3β kinase (P49841 whole entry): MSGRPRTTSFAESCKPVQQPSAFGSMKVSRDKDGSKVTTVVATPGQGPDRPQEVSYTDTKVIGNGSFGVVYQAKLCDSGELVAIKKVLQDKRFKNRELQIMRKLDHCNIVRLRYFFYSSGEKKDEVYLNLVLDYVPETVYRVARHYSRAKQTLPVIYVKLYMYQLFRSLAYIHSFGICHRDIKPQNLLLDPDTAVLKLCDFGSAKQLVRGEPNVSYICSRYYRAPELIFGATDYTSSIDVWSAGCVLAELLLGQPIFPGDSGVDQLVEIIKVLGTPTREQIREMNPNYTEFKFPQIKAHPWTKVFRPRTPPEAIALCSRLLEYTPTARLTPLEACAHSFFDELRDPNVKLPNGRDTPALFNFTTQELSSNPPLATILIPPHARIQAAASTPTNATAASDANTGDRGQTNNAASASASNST

Broadly, the EC50 is the concentration at which the effect is half-maximal. For `[2H]C([2H])([2H])[N+]1([O-])CCN(c2cc(C(=O)Nc3cc4cc(-c5cn(C)nn5)ccc4cn3)ccn2)CC1` [Compound 226, 1-(Methyl-d3)-4-(4-((6-(1-methyl-1H-1,2,3-triazol-4-yl)isoquinolin-3-yl)carbamoyl)pyridin-2-yl)piperazine 1-oxide], the EC50 in experiment [1] (setting [5]) was over 10 µM; on DYRK1A kinase it was 4 nM; in experiment [2], over 10000 nM; with IL-6 it was over 10000 nM; in experiment [3] (setting [6]), over 10000 nM; in experiment [4] it was over 10000 nM. The molecule further registered a half-maximal effective concentration (EC50) at GSK3β kinase of 1190 nM. For the same molecule, the inhibition at 10 µM in experiment [2] came to 31.6%; in the experiment with IL-6, 4.5%; in experiment [3] (setting [7]) it was 46.9%; in experiment [4], 33.2%.
Turning to `Cc1nnc(-c2ccc3cnc(NC(=O)C4CCN(CCC(F)(F)F)CC4)cc3c2)s1` [Compound 38, N-(6-(5-Methyl-1,3,4-thiadiazol-2-yl)isoquinolin-3-yl)-1-(3,3,3-trifluoropropyl)piperidine-4-carboxamide], the concentration giving a half-maximal response (EC50) in experiment [1] (setting [5]) is 0.067 µM; on DYRK1A kinase (setting [8]), 6 nM; in experiment [2] it was 743 nM; with IL-6 it was over 10000 nM; in experiment [3] (setting [6]) it was 1080 nM; in experiment [4], 112 nM. The same molecule displayed an EC50 on GSK3β kinase of 9 nM. Moreover, in the experiment with IL-6, the inhibition at 10 µM was 3.2%.
Regarding `[2H]c1c([2H])c(C([2H])([2H])[2H])c([2H])c([2H])c1C(=O)Nc1cc2cc(-c3cnc(C)n3C)ccc2cn1` [Compound 163, N-(6-(1,2-Dimethyl-1H-imidazol-5-yl)isoquinolin-3-yl)-4-(methyl-d3) benzamide-2,3,5,6-d4], the EC50 was over 10 µM in experiment [1] (setting [5]); 5 nM at DYRK1A kinase; 604 nM in experiment [2]; 5720 nM with IL-6; 795 nM in experiment [3] (setting [6]); 876 nM in experiment [4]. Further, a half-maximal effect at GSK3β kinase (EC50) was put at 4270 nM.
With `Cc1nnc(-c2ccc3cnc(NC(=O)N4[C@@H]5CC[C@H]4C[C@@H](NCC(F)F)C5)cc3c2)s1` [Compound 188, (1R,5S)-cis-3-((2,2-difluoroethyl)amino)-N-(6-(5-methyl-1,3,4-thiadiazol-2-yl)isoquinolin-3-yl)-8-azabicyclo [3.2.1]octane-8-carboxamide], the concentration for a half-maximal effect (EC50) was 4.8 µM in experiment [1] (SH-SY5Y, read-out: pSer396 Tau EC50 (μM)); 3 nM at DYRK1A kinase (setting [8]); 8210 nM in experiment [2]; 5770 nM in the experiment on IL-6; over 10000 nM in experiment [3] (setting [6]); 2480 nM in experiment [4]. For the same molecule, it took 154 nM to reach a half-maximal effect on GSK3β kinase (EC50). Besides, the inhibition at 10 µM in experiment [3] (Homo sapiens, SW480, read-out: percent inhibition at 10 μM) came out at 28%.
For `[2H]c1c(NC(=O)C2CCN(C)CC2)ncc2ccc(-c3nnc(C)s3)cc12` [Compound 134, 1-Methyl-N-(6-(5-methyl-1,3,4-thiadiazol-2-yl)isoquinolin-3-yl-4-d) piperidine-4-carboxamide], the EC50 in experiment [1] (setting [5]) amounted to 0.093 µM; on DYRK1A kinase it was 6 nM; in experiment [2], 593 nM; in the experiment on IL-6, 7130 nM; in experiment [3] (setting [6]), 2740 nM; in experiment [4], 579 nM. The molecule further had an EC50 at GSK3β kinase of 19 nM.
As for `Cc1nnc(-c2ccc3cnc(NC(=O)N4CCC(N5CCN(C)CC5)CC4)cc3c2)s1` [Compound 129, N-(6-(5-methyl-1,3,4-thiadiazol-2-yl)isoquinolin-3-yl)-4-(4-methylpiperazin-1-yl)piperidine-1-carboxamide], the EC50 in experiment [1] (setting [5]) is 0.656 µM; on DYRK1A kinase (setting [8]) it was 18 nM; in experiment [2], 1810 nM; in the experiment with IL-6 it was over 10000 nM; in experiment [3] (setting [6]) it was 3620 nM; in experiment [4], 1990 nM. At GSK3β kinase, this molecule came in with a concentration giving a half-maximal response (EC50) of 90 nM. Further, in the experiment with IL-6, the inhibition at 10 µM was determined as 4.5%.
For the molecule `[2H]C1([2H])OC([2H])([2H])C([2H])([2H])N(CC(=O)Nc2cc3cc(-c4cnc(C)o4)ccc3cn2)C1([2H])[2H]` [Compound 40, N-(6-(2-Methyloxazol-5-yl)isoquinolin-3-yl)-2-(morpholino-d8)acetamide], the 50% effective concentration (EC50) in experiment [1] (setting [5]) is 0.688 µM; at DYRK1A kinase, 29 nM; in experiment [2], over 10000 nM; in the experiment with IL-6 it was 9700 nM; in experiment [3] (setting [6]), over 10000 nM; in experiment [4], 3710 nM. On GSK3β kinase, this molecule showed a half-maximal effective concentration (EC50) of 120 nM. Besides, the results for the inhibition at 10 µM in experiment [2] and in experiment [3] (setting [7]) were 29.6% and 27%, respectively.
`[2H]c1c([2H])c(C(=O)Nc2cc3cc(-c4cnc(C)n4C)ccc3cn2)c([2H])c([2H])c1C` [Compound 162, N-(6-(1,2-Dimethyl-1H-imidazol-5-yl)isoquinolin-3-yl)-4-methylbenzamide-2,3,5,6-d4]: the EC50 is over 10 µM in experiment [1] (setting [5]); 11 nM on DYRK1A kinase; 588 nM in experiment [2]; over 10000 nM with IL-6; 653 nM in experiment [3] (setting [6]); 2000 nM in experiment [4]. This molecule also gave a half-maximal effective concentration (EC50) at GSK3β kinase of 5060 nM. Further, in the experiment with IL-6, the inhibition at 10 µM is 44.7%.
Regarding `[2H]c1c(NC(=O)C2CCNCC2)ncc2ccc(-c3cnn(C)c3)cc12` [Compound 5, N-(6-(1-Methyl-1H-pyrazol-4-yl)isoquinolin-3-yl-4-d)piperidine-4-carboxamide], the EC50 in experiment [1] (setting [5]) is 0.511 µM; at DYRK1A kinase it was 3 nM; in experiment [2] it was 917 nM; in the experiment with IL-6, 1050 nM; in experiment [3] (setting [6]), 738 nM; in experiment [4], 113 nM. The molecule also yielded an EC50 on GSK3β kinase of 115 nM.
As for `[2H]C([2H])(C(=O)Nc1cc2cc(-c3cncn3C)ccc2cn1)c1ccc(F)cc1` [Compound 95, 2-(4-Fluorophenyl)-N-(6-(1-methyl-1H-imidazol-5-yl)isoquinolin-3-yl) acetamide-2,2-d2], the 50% effective concentration (EC50) is 0.076 µM in experiment [1] (setting [5]); 4 nM on DYRK1A kinase; 1070 nM in experiment [2]; 339 nM in the experiment with IL-6; 766 nM in experiment [3] (setting [6]); 276 nM in experiment [4]. This molecule also gave a concentration for a half-maximal effect (EC50) at GSK3β kinase of 38 nM.
For the molecule `Cn1cc(-c2ccc3cnc(NC(=O)C4CCN(C(C)(C)C)CC4)cc3c2)cn1` [Compound 167, 1-(tert-Butyl)-N-(6-(1-methyl-1H-pyrazol-4-yl)isoquinolin-3-yl)piperidine-4-carboxamide], the EC50 in experiment [1] (setting [5]) turned out to be 0.288 µM; at DYRK1A kinase (setting [8]), 7 nM; in experiment [2], 2350 nM; in the experiment with IL-6 it was 1240 nM; in experiment [3] (setting [6]), 3340 nM; in experiment [4], 293 nM. This molecule also yielded an EC50 at GSK3β kinase of 96 nM.
Turning to `Cc1ncc(-c2ccc3cnc(NC(=O)C4CCC(N5CC5CF)CC4)cc3c2)o1` (stereo not drawn) [Compound 154, trans-4-(2-(fluoromethyl)aziridin-1-yl)-N-(6-(2-methyloxazol-5-yl)isoquinolin-3-yl)cyclohexane-1-carboxamide], the concentration giving a half-maximal response (EC50) in experiment [1] (setting [5]) amounted to 0.58 µM; on DYRK1A kinase it was 5 nM; in experiment [2], 2760 nM; with IL-6, 1130 nM; in experiment [3] (setting [6]), 761 nM; in experiment [4], 240 nM. The molecule also registered an EC50 on GSK3β kinase of 124 nM.
On to `[2H]c1c([2H])c(C(=O)Nc2cc3cc(-c4cnc(C)n4C)ccc3cn2)c([2H])c([2H])c1Cl` [Compound 160, 4-Chloro-N-(6-(1,2-dimethyl-1H-imidazol-5-yl)isoquinolin-3-yl)benzamide-2,3,5,6-d4], for which the EC50 in experiment [1] (setting [5]) is over 10 µM; at DYRK1A kinase, 4 nM; in experiment [2], 309 nM; with IL-6, 3300 nM; in experiment [3] (setting [6]) it was 415 nM; in experiment [4] it was 1010 nM. Further, on GSK3β kinase, a half-maximal response (EC50) required 3030 nM.
Regarding `Cc1nnc(-c2ccc3cnc(NC(=O)N4C[C@H]5C[C@@H]4CN5C)cc3c2)s1` [Compound 176, (1R,4R)-5-Methyl-N-(6-(5-methyl-1,3,4-thiadiazol-2-yl)isoquinolin-3-yl)-2,5-diazabicyclo[2.2.1]heptane-2-carboxamide], the EC50 was 4 µM in experiment [1] (setting [5]); 23 nM on DYRK1A kinase (setting [8]); 1040 nM in experiment [2]; over 10000 nM with IL-6; over 10000 nM in experiment [3] (setting [6]); over 10000 nM in experiment [4]. Besides, the EC50 at GSK3β kinase was determined as 207 nM. Also, the results for the inhibition at 10 µM (with IL-6; in experiment [3] (setting [7]); in experiment [4]) were 8.4%, 8.3% and 8.4%, respectively.
